These are literature values, as cited in US5702721A (LTS Lohmann Therapie-Systeme GmbH & Co. KG, priority 1989, dated 1997).

Each structure is given as a SMILES string.

For the data set the following is noted: supersaturated solution resulting on evaporation of the highly volatile component of a mixture of volatile and non-volatile solvents.

On to `COC(=O)C1=C(C)NC(C)=C(C(=O)OC)C1c1ccccc1[N+](=O)[O-]` [nifedipine], for which the “skin penetration / resorption intensification” value is given as “confirmed these effects”.

For the compound `C[C@]12C=CC(=O)C=C1[C@@H](F)C[C@H]1[C@@H]3C[C@@H](O)[C@](O)(C(=O)CO)[C@@]3(C)C[C@H](O)[C@@]12F` [fluocinolone], the “skin penetration / resorption intensification” value is on record as “higher skin penetration”.
